This note sets out measurements from publication PMC9666555, “Genuine selective caspase-2 inhibition with new irreversible small peptidomimetics” (Cell Death & Disease, 2022).

Assay [1] relates to Casp2-mediated Mdm-2 cleavage in H9 hESC-derived NPCs. As to the kind of experiment: Reversine-induced Mdm-2 cleavage in neural progenitor cells (WB). It is filed as cell-based, human. The note with it: 1 µM reversine 24 h. As to the method: The H9 human embryonic stem cell (hESC) line (WA09, WiCell) was maintained on mouse embryonic fibroblasts (MTI-GlobalStem) feeder culture in HUESM medium (20% KSR in KO-DMEM, 1% MEM-NEAA, 1% Pen–Strep, 0.1 mM 2 mercaptoethanol (Life technologies) 10 ng ml^−1 FGF2 (Biotechne), and differentiated into NPCs as previously described [Supplementary ref. 10] [Supplementary ref. 11]. In brief, hESC colonies were lifted with collagenase IV (1 mg ml^−1 in DMEM) at 37 °C for 1–2 h. Colonies lifted from the plate were transferred to a non-adherent plate (Corning) to generate embryoid bodies (EBs) for 1 day in N2/B27 medium (DMEM/F12-GlutaMAX, 1× N2 supplement, 1× B27 no RA supplement; Life). EBs were cultured in suspension in N2/B27 medium with dual-SMAD inhibitors (0.1 µM LDN193189 and 10 µM SB431542) for 7 days. […]
H9-hNPCs were pretreated (or not) for 1 h with LJ3a and treated with 1 µM reversine (#10004412, Cayman Chemicals, Ann Arbor, MI) for 24 h. […] After the BCA assay for protein quantification, samples were subject to polyacrylamide gel electrophoresis-sodium dodecyl sulfate analysis (60 min, 200 V, 12% bis–tris 12-well gels), followed by transfer to nitrocellulose membrane (60 min, 30 V). […] Protein bands were quantified using Image Studio Lite Quantification software (LI-COR®, Lincoln, NE). […]
recorded on the LJ3a sample. […]

The target of assay [2] is human recombinant Caspase-1 (Homo sapiens, UniProt P29466). As to the kind of experiment: Additional enzyme kinetics, Caspase-1. The conditions noted are these: concentrations up to 10 µM.
human recombinant Caspase-1, sequence (P29466 120-297 limits assumed): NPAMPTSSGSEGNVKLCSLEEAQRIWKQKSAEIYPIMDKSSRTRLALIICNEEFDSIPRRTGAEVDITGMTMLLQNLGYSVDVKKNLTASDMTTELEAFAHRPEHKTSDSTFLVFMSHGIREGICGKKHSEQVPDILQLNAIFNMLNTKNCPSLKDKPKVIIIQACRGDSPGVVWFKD
human recombinant Caspase-1, sequence (P29466 317-404 limits assumed): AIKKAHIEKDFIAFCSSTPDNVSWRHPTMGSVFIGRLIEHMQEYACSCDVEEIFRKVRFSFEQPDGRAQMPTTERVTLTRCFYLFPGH
Procedure: The human active recombinant Caspase-3 (#707-C3) was purchased from R&D Systems (Minneapolis, USA). […] Stock solutions were stored at −80 °C. […] Caspase inhibitors were solubilized in DMSO at 10 mM and stored at −80 °C.
Initial velocity (V0) was determined from the linear portion of the progress curve. The composition of the activity buffer was: 20 mM HEPES, pH 7.4; 0.1% CHAPS, 5 mM DTT, 2 mM EDTA; 800 mM sodium succinate for Caspase-2 (0.2 nM) with 25 µM of Ac-VDVAD-7-amino-3-methylcoumarin (AMC) and 20 mM HEPES, pH 7.4; 0.1% CHAPS, 5 mM DTT, 2 mM EDTA; supplemented with 1 mg/mL of stabilizing agent bovine serum albumin (BSA) for Caspase-3 (0.1 nM) with 10 μM of Ac-DEVD-AMC. Compounds (0.001–100 µM) were tested in duplicate for each inhibitor concentration to detect their inhibitory potential. Enzymes and compounds were incubated for 30 min before initiating enzymatic reaction by adding substrate. Initial rates determined in control experiments (V0) were considered as 100% of the caspase activity; initial rates that were below 100% in the presence of tested compound (Vi) were considered as inhibition. The inhibitory activity of compounds was expressed as IC50 (Inhibitor concentration giving 50% inhibition). The values of IC50 were calculated by fitting the experimental data using Mars data Analysis 2.0 and KaleidaGraph software.1 %Inhibition=1001−Vi/V0=100I0/IC50+I0
The subject of assay [3] is Swiss mice hippocampal neurons. As to the kind of experiment: Aβ oligomer-induced dendritic spine loss in hippocampal primary cultures. The note with it: 100 nM Aβ1-42 oligomers 6 h. It is filed as cell-based, mouse.
Procedure: For the monoculture model (MBBT4 devices), 20 × 10^3 hippocampal neurons were seeded in each chamber. For the compartmentalized coculture model (neuronal diode in MBBT5 devices), 40 × 10^3 cortical cells and 15 × 10^3 hippocampal cells were seeded in each input chamber and output chamber, respectively. The culture medium was renewed every 5 days. Microfluidic chips were placed in Petri dishes containing 0.1% EDTA (Sigma) and incubated at 37 °C in a 5% CO2 atmosphere. In the neuronal diodes, cortical axons entered the microchannels and reached the hippocampi chamber in around 4–5 days. In both the monoculture and coculture systems, cells were cultured for 3 weeks to allow high dendrites and synapse density and intense electrical firing.
Cells were treated with caspase inhibitors and/or Aβ1–42 at 20 days in vitro. For the hippocampal monocultures, the culture medium was removed and replaced by fresh medium optionally containing 10 nM Aβ1–42 oligomers or monomers, with or without caspase inhibitors. After 6 h, cells were fixed, permeabilized, and subjected to immunolabelling. For cortico-hippocampal compartmentalized cocultures, the medium of the input chamber (cortical) was replaced by fresh medium optionally containing 100 nM Aβ1–42 oligomers or monomers, whereas the medium of the output (hippocampal) chamber was replaced by fresh medium optionally containing, or not, caspases inhibitors. […]
Immunostaining was performed directly in microfluidic chambers as described [38]. […] Images were analyzed using ImageJ software (NIH, Bethesda, MD, USA).
Synaptic disconnection was assessed as described [39] with slight modifications. Briefly, in hippocampal monocultures, synaptic disconnection was assessed through fluorescence microscopy by counting phalloidin clusters affixed to MAP2 and Bassoon. In cortico-hippocampal compartmentalized cocultures, synaptic disconnection was assessed by counting α-Synuclein presynaptic clusters affixed to MAP2-positive hippocampal dendrites. […] The images were similarly processed with ImageJ software before being used for quantification: the brightness/contrast of all control images were optimized manually to eliminate the background and to maximize the signal. The means of the minimum and maximum intensities were then calculated in the control condition and these settings were applied to all images. The brightness/contrast of all images was optimized manually to eliminate the background and maximize the intensity of the signal. α-synuclein/ MAP2 and Phalloidin/MAP2/Bassoon merges were then used for quantification. The number of spines was determined by counting individual clusters along ten dendritic regions (100 µm length each) in three independent experiments for every epitope. Only synapses detected on or near the neurites were included for analysis.

Take `CC(C)[C@H](NC(=O)c1ccc2ccccc2n1)C(=O)N[C@@H](CC(=O)O)C(=O)N[C@H](C(=O)N1CC[C@H](CC(C)(C)C)[C@@H]1C(=O)NC(CC(=O)O)C(=O)COc1c(F)cccc1F)C(C)C` (stereo partly drawn) [LJ3a]: the “effect on reversine-induced Mdm-2 cleavage” value was “completely abolished” in assay [1] (10 µM) and “significantly prevented” in assay [1] (submicromolar concentrations). In addition, in assay [2], the “effect on Caspase-1” value is “very limited or no effect”. Further, the “prevention of dendritic spine loss induced by oligomeric Aβ” value in assay [3] (pretreatment at 0.1 µM) is listed as 59.63%; in assay [3] (pretreatment at 1 µM), 89.29%; in assay [3] (pretreatment at 10 µM), 97.5%.
